The values below come from ChEMBL document CHEMBL4316623, “Phosphonodiamidate prodrugs of N-alkoxy analogs of a fosmidomycin surrogate as antimalarial and antitubercular agents” (Bioorg Med Chem Lett, 2019).

Active and inactive are the calls of the source. The calls are words filed in the database; no cut-off is given here. A value given as a limit tells only on which side of the number the result lay.

Series [1] deals with Plasmodium falciparum. Description: Antimalarial activity against Chloroquine-resistant Plasmodium falciparum K1 measured after 72 hrs by malstat/NBT dye based assay. Format: functional, organism-based. Conditions: K1, 72 h.
Series [2] can be described thus: Selectivity index, ratio of CC50 for human MRC5 cells to IC50 for Chloroquine-resistant Plasmodium falciparum K1. In kind it is toxicity. The settings on record: read-out: Ratio CC50/IC50.
Series [3] in a line: Cytotoxicity against human MRC5 cells assessed as reduction in cell viability measured after 24 hrs by resazurin dye based fluorimetric assay.
Series [4] deals with Mycobacterium tuberculosis. The series is described as follows: Antitubercular activity against Mycobacterium tuberculosis H37Rv up to 50 uM measured after 7 days by resazurin dye based colometric microtiter assay. In kind it is functional, organism-based.
The nature of series [5]: Oral bioavailability in human. Format: ADME, organism-based. The settings on record: in vivo.
Series [6] can be described thus: Half life in human at 500 mg, po. In kind it is ADME. Conditions: in vivo.

In turn, `CCOC(=O)[C@H](CC(C)C)NP(=O)(CCCC(=O)N(C)OCCCc1ccccc1)N[C@@H](CC(C)C)C(=O)OCC` displayed an IC50 in series [1] of 8.93 µM. Besides, the selectivity ratio in series [2] worked out at 2.6. Moreover, the CC50 at 24 h in series [3] stood at 23.1 µM. Besides, the result in series [4] was inactive.

As for `CCOC(=O)[C@H](CC(C)C)NP(=O)(CCCC(=O)N(C)OCc1ccc(Cl)cc1)N[C@@H](CC(C)C)C(=O)OCC`, in series [1], 7.12 µM corresponded to half-maximal inhibition (IC50). The selectivity ratio in series [2] is 2.6. The half-maximal cytotoxic concentration (CC50) at 24 h in series [3] was found to be 18.4 µM. Besides, in series [4], the outcome was inactive.

Take `CCOC(=O)[C@H](CC(C)C)NP(=O)(CCCC(=O)N(C)OCc1ccc(C(C)C)cc1)N[C@@H](CC(C)C)C(=O)OCC`: in series [1], the IC50 is 5.28 µM. In series [2], the selectivity ratio worked out at 1.4. Besides, the CC50 at 24 h in series [3] stood at 7.22 µM. Besides, in series [4], the outcome was inactive.

In series [1], `CCOC(=O)[C@H](CC(C)C)NP(=O)(CCCC(=O)N(C)OCc1ccccc1)N[C@@H](CC(C)C)C(=O)OCC` returned an IC50 of 4.22 µM. In series [2], the selectivity ratio was above 15. The CC50 at 24 h in series [3] was above 64 µM. Further, in series [4], the outcome was inactive.

For the compound `CCOC(=O)[C@H](CC(C)C)NP(=O)(CCCC(=O)N(C)OCc1ccc(-c2ccccc2)cc1)N[C@@H](CC(C)C)C(=O)OCC`, in series [1], half-maximal inhibition (IC50) was put at 5.25 µM. Also, the selectivity ratio in series [2] was determined as 1.1. In series [3], the CC50 at 24 h amounted to 5.94 µM. Also, the outcome in series [4] was inactive.

On to `O=CN(O)CCCP(=O)([O-])O.[Na+]` [FOSMIDOMYCIN SODIUM], for which, in series [5], the bioavailability lay within 20 to 40%. Further, the half-life in series [6] is 1.87 h.

Consider `CCOC(=O)[C@H](CC(C)C)NP(=O)(CCCC(=O)N(C)O)N[C@@H](CC(C)C)C(=O)OCC`, for which the IC50 in series [1] stood at 4.83 µM. In series [2], the selectivity ratio is above 20. Besides, the CC50 at 24 h in series [3] is above 64 µM. For the same compound, the outcome in series [4] was inactive.

With `CCOC(=O)[C@H](CC(C)C)NP(=O)(CCCC(=O)N(C)OCc1ccc2ccccc2c1)N[C@@H](CC(C)C)C(=O)OCC`, half-maximal inhibition in series [1] (IC50) required 6.22 µM. Besides, the selectivity ratio in series [2] amounted to 0.88. Moreover, the CC50 at 24 h in series [3] stood at 5.47 µM. The result in series [4] was inactive.

As to `CCOC(=O)[C@H](CC(C)C)NP(=O)(CCCC(=O)N(C)OCCCCc1ccccc1)N[C@@H](CC(C)C)C(=O)OCC`, the IC50 in series [1] is 6.72 µM. Moreover, the selectivity ratio in series [2] turned out to be 1.1. In series [3], the half-maximal cytotoxic concentration (CC50) at 24 h worked out at 7.23 µM. Moreover, the result in series [4] was inactive.
